The target of data set [1] is T1, human neurokinin-2 receptor (Homo sapiens, UniProt P21452).
T1 construct: expressed in transfected cells; host or cells: CHO
T1 sequence (P21452 1-398): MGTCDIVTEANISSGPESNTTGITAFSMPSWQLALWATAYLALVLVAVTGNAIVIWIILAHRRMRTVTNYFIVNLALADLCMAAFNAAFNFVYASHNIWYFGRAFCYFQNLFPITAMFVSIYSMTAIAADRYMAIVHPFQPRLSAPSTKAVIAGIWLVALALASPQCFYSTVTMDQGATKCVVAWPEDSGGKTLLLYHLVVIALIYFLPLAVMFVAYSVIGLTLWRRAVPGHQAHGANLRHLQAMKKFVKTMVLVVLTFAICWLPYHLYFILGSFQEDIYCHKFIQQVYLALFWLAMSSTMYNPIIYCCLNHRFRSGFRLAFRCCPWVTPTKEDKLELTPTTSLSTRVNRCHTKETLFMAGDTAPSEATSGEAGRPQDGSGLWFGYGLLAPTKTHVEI
Kind of data set: Binding affinity to human NK-2 receptor expressed in CHO cells (inhibition of [125I]-NKA or [3H]-NKA binding). Conditions: human neurokinin-2 receptor expressed in CHO cell lines; read-out: Binding affinity, Ki (nM) hNK-2-CHO. How it is done:
The activity of the compounds of the present invention, as NK-2 ligands, is determined by their ability to inhibit the binding of the radiolabelled NK-2 ligands, [^125I]-NKA or [^3H]-NKA, to human NK-2 receptors (Aharony et al, 1992, Neuropeptide, 23, 121-130).
The binding assays utilized allow the determination of the concentration of the individual compound required to reduce by 50% the [^125I]-NKA and [^3H]-NKA specific binding to NK2 receptor in equilibrium conditions (IC50).
Binding assays provide for each compound tested a mean IC50 value of 2-5 separate experiments performed in duplicate or triplicate. […] The NK-2-antagonist activity of the compounds of the present invention is determined by their ability to inhibit human NK-2 receptor-mediated Ca^++ mobilization (Mochizuki et al, 1994, J. Biol. Chem., 269, 9651-9658). Human receptor functional assay allows the determination of the concentration of the individual compound required to reduce by 50% (IC50 values) the Ca^++ mobilization induced by the agonist NKA. In this assay, the compounds of the present invention behave as antagonists.

Data set [2] concerns the target T2, human neurokinin-3 receptor (Homo sapiens, UniProt P29371).
T2 construct: expressed in transfected cells; host or cells: CHO
T2 sequence (P29371 1-465): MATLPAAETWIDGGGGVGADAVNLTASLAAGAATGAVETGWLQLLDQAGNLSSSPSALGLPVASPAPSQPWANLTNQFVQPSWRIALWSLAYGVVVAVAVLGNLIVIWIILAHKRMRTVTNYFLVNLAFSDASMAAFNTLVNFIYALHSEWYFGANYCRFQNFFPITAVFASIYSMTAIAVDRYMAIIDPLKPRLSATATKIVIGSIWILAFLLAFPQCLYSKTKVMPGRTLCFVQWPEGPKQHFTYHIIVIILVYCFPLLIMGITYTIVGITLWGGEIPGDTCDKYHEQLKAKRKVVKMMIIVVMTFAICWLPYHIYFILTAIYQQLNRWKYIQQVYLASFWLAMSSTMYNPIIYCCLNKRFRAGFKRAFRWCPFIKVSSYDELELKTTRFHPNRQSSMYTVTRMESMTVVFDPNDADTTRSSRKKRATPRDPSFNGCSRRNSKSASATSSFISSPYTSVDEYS
Kind of data set: Binding affinity to human NK-3 receptor expressed in CHO cells (inhibition of [125I]-[Me-Phe7]-NKB or [3H]-Senktide binding). As to conditions: human neurokinin-3 receptor expressed in CHO cell lines; read-out: Binding affinity, Ki (nM) hNK-3-CHO. How it is done: The activity of the compounds of the present invention, as NK3 ligands, is determined by their ability to inhibit the binding of the radiolabelled NK3 ligands, [^125I]-[Me-Phe^7]-NKB or [^3H]-Senktide, to guinea-pig and human NK3 receptors (Renzetti et al, 1991, Neuropeptide, 18, 104-114; Buell et al, 1992, FEBS, 299(1), 90-95; Chung et al, 1994, Biochem. Biophys. Res. Commun., 198(3), 967-972).
The binding assays utilized allow the determination of the concentration of the individual compound required to reduce by 50% the [^125I]-[Me-Phe^7]-NKB and [^3H]-Senktide specific binding to NK3 receptor in equilibrium conditions (IC50).
Binding assays provide for each compound tested a mean IC50 value of 2-5 separate experiments performed in duplicate or triplicate. […] The NK3-antagonist activity of the compounds of the present invention is determined by their ability to inhibit senktide-induced contraction of the guinea-pig ileum (Maggi et al, 1990, Br. J. Pharmacol., 101, 996-1000) and rabbit isolated iris sphincter muscle (Hall et al., 1991, Eur. J. Pharmacol., 199, 9-14) and human NK3 receptors-mediated Ca^++ mobilization (Mochizuki et al, 1994, J. Biol. Chem., 269, 9651-9658). Guinea-pig and rabbit in-vitro functional assays provide for each compound tested a mean KB value of 3-8 separate experiments, where KB is the concentration of the individual compound required to produce a 2-fold rightward shift in the concentration-response curve of senktide. Human receptor functional assay allows the determination of the concentration of the individual compound required to reduce by 50% (IC50 values) the Ca^++ mobilization induced by the agonist NKB. In this assay, the compounds of the present invention behave as antagonists.

Molecule `CC[C@H](NC(=O)c1c(CN2CCC3(CC2)OCCO3)c(-c2ccccc2)nc2ccccc12)c1ccccc1` [Example 9, (S)-N-(α-ethylbenzyl)-3-[(1,4-dioxa-8-azaspiro[4.5]decan-8-yl)methyl]-2-phenylquinoline-4-carboxamide] returned a melting point of 170 to 173 °C. For the same molecule, the Ki in data set [1] stood at 18.2 nM. In addition, in data set [2], the Ki is 0.8 nM.

As to `CC[C@H](NC(=O)c1c(CN2CCC[C@@H]2CO)c(-c2ccccc2)nc2ccccc12)c1ccccc1` [Example 5], the melting point was 83 °C (dec.). In data set [1], the Ki came to 73.2 nM. Further, in data set [2], the Ki was 0.9 nM.

The molecule `CC[C@H](NC(=O)c1c(CN2CCC(=O)CC2)c(-c2ccccc2)nc2ccccc12)c1ccccc1` [Example 17, (S)-N-(α-Ethylbenzyl)-3-[(4-oxopiperidin-1-yl)methyl]-2-phenylquinoline-4-carboxamide] came in with a melting point greater than 95 °C. The Ki in data set [1] stood at 42.7 nM. The Ki in data set [2] is 1.5 nM.

In turn, `CC[C@H](NC(=O)c1c(CN2CC[C@H](O)C2)c(-c2ccccc2)nc2ccccc12)c1ccccc1` [Example 32, (S)-N-(α-ethylbenzyl)-3-[(3-(S)-hydroxy)pyrrolidin-1-ylmethyl]-2-phenylquinoline-4-carboxamide] showed a melting point of 90 to 95 °C. In addition, in data set [1], the inhibition constant (Ki) is 68.8 nM. For the same molecule, the Ki in data set [2] was 3.2 nM.

`CC[C@H](NC(=O)c1c(CN2CCN(CC)CC2)c(-c2ccccc2)nc2ccccc12)c1ccccc1` [Example 36] registered a melting point of 75 to 78 °C. Further, in data set [1], the Ki stood at 12.7 nM. Also, in data set [2], the Ki is 1.7 nM.

`CC(C)[C@H](NC(=O)c1c(CN2CCN(C(C)C)CC2)c(-c2ccccc2)nc2ccccc12)c1ccccc1` [Example 43] had a melting point of 125 to 130 °C. In data set [1], the Ki came to 1.2 nM. Further, the Ki in data set [2] is 1 nM.

Molecule `CC[C@H](NC(=O)c1c(CN2CCN(CCc3ccccc3)CC2)c(-c2ccccc2)nc2ccccc12)c1ccccc1` [Example 37] yielded a melting point of 158 to 160 °C. The Ki in data set [1] amounted to 0.9 nM. Also, the Ki in data set [2] worked out at 0.8 nM.

The molecule `CC[C@H](NC(=O)c1c(CN(C)CCO)c(-c2ccccc2)nc2ccccc12)c1ccccc1` [Example 6] displayed a melting point of 167 to 170 °C. Further, in data set [1], the Ki came to 65.5 nM. The Ki in data set [2] was found to be 1.2 nM.

`CC[C@H](NC(=O)c1c(CCCN2CCN(c3cccc(C(F)(F)F)c3)CC2)c(-c2ccccc2)nc2ccccc12)c1ccccc1` [Example 23] showed a melting point of 102 to 105 °C. In addition, the Ki in data set [1] was determined as 9.7 nM. Besides, in data set [2], the Ki was 1.2 nM.

These data come from patent publication US20010012846A1, “Quinoline-4-carboxamide derivatives as NK-2 and NK-3 receptor antagonists” (priority 1997, published 2001).
